Measured values as given in US20250134907A1, “FUSED DIAZEPINES AS AGONISTS OF THE INSULIN-LIKE 3 (INSL3) PEPTIDE RECEPTOR RXFP2 AND METHODS OF USE THEREOF” (The United States of America,as represented by the …, priority 2022, published 2025).

Biological target: T1, RXFP2 (Homo sapiens, UniProt Q8WXD0)
T1 construct: expressed in transfected cells
Test: HTRF cAMP assay in HEK293T cells stably expressing RXFP2 (HEK-RXFP2)
Format: cell-based
Details: for % EFF vs. 1 nM INSL3 (b): normalized to 1 nM INSL3 cAMP response; for % EFF vs. 100 nM INSL3 (c): normalized to 100 nM INSL3 cAMP response; for % EFF vs. 1 nM INSL3 (a): maximum cAMP response normalized to 1 nM INSL3 response
Procedure: Compound efficacy and EC50 were determined by measuring cAMP induction in vitro. HEK293T cells stably expressing RXFP2 (HEK-RXFP2) produce cAMP when RXFP2 is activated, which can be measured in an antibody-based immunoassay utilizing a fluorescent readout (cAMP Gs HiRange Kit, PerkinElmer, Waltham, MA). HEK-RXFP2 cells were seeded in 96-well plates in serum-free DMEM and incubated overnight at 37° C., 5% CO2. Plates were then treated with a compound titration up to 25 μM or INSL3 control, in the presence of isobutylmethylxanthine phosphodiesterase inhibitor (IBMX) at 200 μM to amplify the cAMP signal, for 1 hour at 37° C., 5% CO2 before being processed as per kit instructions. Table 7 lists the efficacy and EC50 of compounds tested under different experimental conditions. […] In condition (a), 20,000 cells were seeded per well in the 96 well plate, and efficacy was determined by normalizing the maximum compound cAMP response to the 1 nM INSL3 cAMP response (% Efficacy 1 nM INSL3 (a)). In condition (b), 10,000 cells were seeded per well, and compound response was normalized to the 1 nM INSL3 cAMP response (% Efficacy 1 nM INSL3 (b)). In condition (c), 7,500 cells were seeded per well, compound response was normalized to the 100 nM INSL3 cAMP response, and IBMX was omitted (% Efficacy 100 nM INSL3 (c)). A range is given when compounds were tested multiple times. Where compounds were tested under multiple experimental conditions, the EC50 listed for the corresponding condition is marked (a) through (c) to correlate. When EC50 could not be calculated from the dose-response curve, EC50 is listed as not determined (ND).

[1] = condition (b): 10,000 cells/well, IBMX 200 μM
[2] = condition (c): 7,500 cells/well, IBMX omitted
[3] = condition (a): 20,000 cells/well, IBMX 200 μM

T1 sequence (Q8WXD0 whole entry): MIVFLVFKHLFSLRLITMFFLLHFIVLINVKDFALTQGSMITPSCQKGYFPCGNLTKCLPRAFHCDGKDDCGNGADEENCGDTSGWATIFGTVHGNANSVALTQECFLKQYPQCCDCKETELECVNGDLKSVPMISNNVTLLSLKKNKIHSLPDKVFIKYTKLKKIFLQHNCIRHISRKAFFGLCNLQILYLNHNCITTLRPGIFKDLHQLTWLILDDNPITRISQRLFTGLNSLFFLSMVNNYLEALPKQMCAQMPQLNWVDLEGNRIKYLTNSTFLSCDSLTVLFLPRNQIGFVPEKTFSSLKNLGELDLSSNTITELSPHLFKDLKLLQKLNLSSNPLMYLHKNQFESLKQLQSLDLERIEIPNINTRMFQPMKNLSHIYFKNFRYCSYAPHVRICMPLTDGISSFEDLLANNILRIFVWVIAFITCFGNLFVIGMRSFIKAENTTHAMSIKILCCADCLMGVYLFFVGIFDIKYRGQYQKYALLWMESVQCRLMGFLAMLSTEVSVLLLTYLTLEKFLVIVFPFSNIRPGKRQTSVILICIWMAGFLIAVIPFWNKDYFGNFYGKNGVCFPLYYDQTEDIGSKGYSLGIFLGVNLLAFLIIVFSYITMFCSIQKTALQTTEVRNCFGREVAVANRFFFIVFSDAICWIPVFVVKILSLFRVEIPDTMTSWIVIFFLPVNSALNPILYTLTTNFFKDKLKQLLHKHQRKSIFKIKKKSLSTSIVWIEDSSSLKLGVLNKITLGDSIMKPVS

| SMILES | % EFF vs. 1 nM INSL3 (b) [1] | % EFF vs. 1 nM INSL3 (a) [3] | also measured |
| --- | --- | --- | --- |
| O=C1Nc2ccc(-c3cc(C(F)(F)F)ccc3F)cc2C(=O)N2CCN(C(=O)COc3ccc(OC(F)(F)F)cc3Cl)CC12 (racemic) [Example 104, 2-(2-(2-chloro-4-(trifluoromethoxy)phenoxy)acetyl)-8-(2-fluoro-5-(trifluoromethyl)phenyl)-1,3,4,12a-tetrahydrobenzo[e]pyrazino[1,2-a][1,4]diazepine-6,12 (2H, 11H)-dione] | 67.7% |  | EC50 [1]: 17.7 nM |
| N#Cc1cc(-c2ccc3c(c2)C(=O)N2CCN(C(=O)COc4ccc(OC(F)(F)F)cc4Cl)CC2C(=O)N3)cc(C(F)(F)F)c1 (racemic) [Example 106, 3-(2-(2-(2-chloro-4-(trifluoromethoxy)phenoxy)acetyl)-6,12-dioxo-1,2,3,4,6,11,12,12a-octahydrobenzo[e]pyrazino[1,2-a]1[1,4]diazepin-8-yl)-5-(trifluoromethyl)benzonitrile] | 50.30% |  | EC50 [1]: 31.5 nM |
| O=C1Nc2cnc(-c3cc(C(F)(F)F)cc(C(F)(F)F)c3)cc2C(=O)N2CCN(C(=O)COc3ccc(OC(F)(F)F)cc3I)C[C@@H]12 (single isomer, unassigned) [Example 196] |  |  | EC50 [2]: 984 nM; % EFF vs. 100 nM INSL3 (c) [2]: 109.23% |
| O=C1Nc2cnc(-c3cc(C(F)(F)F)cc(C(F)(F)F)c3)cc2C(=O)N2CCN(C(=O)COc3ccc(OC(F)(F)F)cc3Br)C[C@@H]12 (single isomer, unassigned) [Example 197] |  |  | % EFF vs. 100 nM INSL3 (c) [2]: 104.06% |
| O=C1Nc2ncc(-c3cc(C(F)(F)F)cc(C(F)(F)F)c3)cc2C(=O)N2CCN(C(=O)COc3ccc(OC(F)(F)F)cc3I)C[C@@H]12 (single isomer, unassigned) [Example 202] |  |  | EC50 [2]: 40.7 nM; % EFF vs. 100 nM INSL3 (c) [2]: 102.23% |
| O=C1Nc2ccc(-c3cc(C(F)(F)F)cc(C(F)(F)F)c3)nc2C(=O)N2CCN(C(=O)COc3ccc(OC(F)(F)F)cc3I)C[C@@H]12 (single isomer, unassigned) [Example 206] |  |  | EC50 [2]: 563 nM; % EFF vs. 100 nM INSL3 (c) [2]: 60.89% |
| Cc1cc(OC(F)(F)F)ccc1OCC(=O)N1CCN2C(=O)c3cc(-c4ccnc(C(F)(F)F)c4)ccc3NC(=O)C2C1 (stereo not drawn) [Example 40, 2-(2-(2-methyl-4-(trifluoromethoxy)phenoxy)acetyl)-8-(2-(trifluoromethyl)pyridin-4-yl)-1,3,4,12a-tetrahydrobenzo[e]pyrazino[1,2-a][1,4]diazepine-6,12 (2H, 11H)-dione] | 47.69% |  |  |
| Cc1cc(OC(F)(F)F)ccc1OCC(=O)N1CCN2C(=O)c3cc(-c4cncc(C(F)(F)F)c4)ccc3NC(=O)C2C1 (stereo not drawn) [Example 41, 2-(2-(2-methyl-4-(trifluoromethoxy)phenoxy)acetyl)-8-(5-(trifluoromethyl)pyridin-3-yl)-1,3,4,12a-tetrahydrobenzo[e]pyrazino[1,2-a][1,4]diazepine-6,12 (2H, 11H)-dione] | 33.78% |  |  |
| Cc1cc(-c2ccc3c(c2)C(=O)N2CCN(C(=O)COc4ccc(OC(F)(F)F)cc4Cl)CC2C(=O)N3)cc(C(F)(F)F)c1 (stereo not drawn) [Example 105, 2-(2-(2-chloro-4-(trifluoromethoxy)phenoxy)acetyl)-8-(3-methyl-5-(trifluoromethyl)phenyl)-1,3,4,12a-tetrahydrobenzo[e]pyrazino[1,2-a][1,4]diazepine-6,12 (2H, 11H)-dione] | 81.13-152.31% | 143.62% | EC50 [1]: 84.2 to 219 nM |
| O=C1Nc2ccc(-c3ccc(C(F)(F)F)s3)cc2C(=O)N2CCN(C(=O)COc3ccccc3)CC12 (stereo not drawn) [Example 107, 2-(2-phenoxyacetyl)-8-(5-(trifluoromethyl)thiophen-2-yl)-1,3,4,12a-tetrahydrobenzo[e]pyrazino[1,2-a][1,4]diazepine-6,12 (2H, 11H)-dione] |  | 27.96% |  |
| Cc1cc(OC(F)(F)F)ccc1OCC(=O)N1CCN2C(=O)c3cc(-c4cccc(C(F)(F)F)n4)ccc3NC(=O)C2C1 (stereo not drawn) [Example 108, 2-(2-(2-methyl-4-(trifluoromethoxy)phenoxy)-acetyl)-8-(6-(trifluoromethyl)pyridin-2-yl)-1,3,4,12a-tetrahydrobenzo[e]pyrazino[1,2-a][1,4]diazepine-6,12 (2H, 11H)-dione] | 38.19% |  |  |
| O=C1Nc2ccc(-c3cccc(C(F)(F)F)c3)cc2C(=O)N2CCN(C(=O)COc3ccccc3)C[C@@H]12 [Example 112, (S)-2-(2-phenoxyacetyl)-8-(3-(trifluoromethyl)phenyl)-1,3,4,12a-tetrahydrobenzo[e]pyrazino[1,2-a][1,4]diazepine-6,12 (2H, 11H)-dione] |  | 12.93% |  |

Second part, led by results:

| % EFF vs. 1 nM INSL3 (b) [1] | % EFF vs. 1 nM INSL3 (a) [3] | SMILES | also measured |
| --- | --- | --- | --- |
|  | 20.07-42.35% | O=C1Nc2ccc(-c3cccc(C(F)(F)F)c3)cc2C(=O)N2CCN(C(=O)COc3ccc(OC(F)F)cc3F)CC12 (stereo not drawn) [Example 55, 2-(2-(4-(difluoromethoxy)-2-fluorophenoxy)acetyl)-8-(3-(trifluoromethyl)phenyl)-1,3,4,12a-tetrahydrobenzo[e]pyrazino[1,2-a][1,4]diazepine-6,12 (2H, 11H)-dione] | EC50 [3]: 24.4 to 59.4 nM |
|  | 56.29-60.35% | Cc1cc(OC(F)(F)F)ccc1OCC(=O)N1CCN2C(=O)c3cc(-c4cccc(C(F)(F)F)c4)ccc3NC(=O)C2C1 (stereo not drawn) [Example 64, 2-(2-(2-methyl-4-(trifluoromethoxy)phenoxy)acetyl)-8-(3-(trifluoromethyl)phenyl)-1,3,4,12a-tetrahydrobenzo[e]pyrazino[1,2-a][1,4]diazepine-6,12 (2H, 11H)-dione] | EC50 [3]: 37 to 56.6 nM |
|  | 33.99% | O=C1Nc2ccc(-c3cccc(C(F)(F)F)c3)cc2C(=O)N2CCN(C(=O)COc3ccc(C(F)(F)F)c(F)c3F)CC12 (stereo not drawn) [Example 68, 2-(2-(2,3-difluoro-4-(trifluoromethyl)phenoxy)acetyl)-8-(3-(trifluoromethyl)phenyl)-1,3,4,12a-tetrahydrobenzo[e]pyrazino[1,2-a][1,4]diazepine-6,12 (2H, 11H)-dione] | EC50 [3]: 8.56 nM |
|  | 35.5% | O=C1Nc2ccc(-c3cccc(C(F)(F)F)c3)cc2C(=O)N2CCN(C(=O)COc3ccc(OC(F)(F)F)cc3F)CC12 (stereo not drawn) [Example 101, 2-(2-(2-fluoro-4-(trifluoromethoxy)phenoxy)acetyl)-8-(3-(trifluoromethyl)phenyl)-1,3,4,12a-tetrahydrobenzo[e]pyrazino[1,2-a][1,4]diazepine-6,12 (2H, 11H)-dione] | EC50 [3]: 24.5 nM |
|  | 3.69% | O=C1Nc2ccc(-c3cccc(C(F)(F)F)c3)cc2C(=O)N2CCN(C(=O)COc3ccccc3)C[C@H]12 [Example 115, (R)-2-(2-phenoxyacetyl)-8-(3-(trifluoromethyl)phenyl)-1,3,4,12a-tetrahydrobenzo[e]pyrazino[1,2-a][1,4]diazepine-6,12 (2H, 11H)-dione] |  |
| 77.84% |  | O=C1Nc2ccc(-c3cccc(C(F)(F)F)c3)cc2C(=O)N2CCN(C(=O)COc3ccc(OC(F)(F)F)cc3Cl)C[C@@H]12 [Example 117, (S)-2-(2-(2-chloro-4-(trifluoromethoxy)phenoxy)acetyl)-8-(3-(trifluoromethyl)phenyl)-1,3,4,12a-tetrahydrobenzo[e]pyrazino[1,2-a][1,4]diazepine-6,12 (2H, 11H)-dione] | EC50 [1]: 15.6 nM |
